Patent US8314079B2, “Hyaluronic acid oligosaccharide fractions and drugs containing the same” (Seikagaku Corporation, priority 2000, dated 2012)

Tests used:
HSF1 = assay: Phosphorylation (activation) of HSF1 in heat-shocked K562 cells, band shift 66 kDa to 81 kDa by SDS-PAGE/Western blotting; type: cell-based, human; settings: for shift of a band of 66 kDa (HSF1 not phosphorylated) to a band of 81 kDa (phosphorylated HSF1): Experiment 1, 1, 10 or 100 ng/mL, heat shock 42° C., 20 minutes; for amount of HSF1 per se / band shift of HSF1 (66 kDa to 81 kDa): Experiment 2 (and comparative Experiment 3), 100 ng/mL, heat shock 43° C.
From the text: It is known that HSF1 (heat shock factor 1) protein is a transcription factor of Hsp70 (J. Biol. Chem., 271, pp. 3355-3358, 1996). Moreover, the HSF1 protein can be activated by phosphorylation, and this phosphorylation can be detected based on band shift in SDS-polyacrylamide gel electrophoresis (SDS-PAGE) (apparent molecular weight shifts from about 66 kDa to about 81 kDa). By utilizing this fact, the HA oligosaccharides of various sizes were allowed to act on the K562 cells given with stress, and the aforementioned band shift was detected to investigate the degree of the phosphorylation (activation) of HSF1.
HA4, ΔHA4, HA6, HA8, HA2-18 and HA 8-14 were each added to a medium containing the aforementioned cells at a concentration of 1, 10 or 100 ng/mL. Then, the cells were immediately transferred into an environment at 42° C. to be given with heat shock and incubated for 20 minutes. After the incubation, the cells were collected by centrifugation, and SDS-PAGE (gel concentration: 10%) was performed. Thereafter, Western blotting was performed by using anti-HSF1 monoclonal antibodies (produced by Stressgene) as primary antibodies and goat anti-mouse IgG monoclonal antibodies (produced by Jackson Lab) as secondary antibodies to detect the shift of a band of 66 kDa (HSF1 not phosphorylated) to a band of 81 kDa (phosphorylated HSF1).
In order to confirm the reproducibility of Experiment 1, the band shift was detected in the same manner as in Experiment 1 by using HA4, ΔHA4, HA8 and HA84 except that HA was added in a single kind of amount of 100 ng/mL, and the heat shock was given at 43° C. In FIG. 41, the first lane from the left indicates the result obtained with an extract of cells incubated at 37° C. (no addition of HA oligosaccharide), the second lane indicates the result obtained with an extract of cells subjected to 43° C. (no addition of HA oligosaccharide), and the first lane from the right indicates the result of detection of HSF1 (derived from bacteria) as a standard.
In order to investigate whether the action observed in Experiment 2 was specific to the saccharide chain basic structure of HA oligosaccharides, the following comparative experiment was performed by using chondroitin oligosaccharides. […] Therefore, it can be said that Ch is a substance extremely structurally analogous to HA, and the same shall also apply to the oligosaccharides thereof. • Saturated Ch tetrasaccharide (Ch4) • GlcAβ1-3GalNAcβ1-4GlcAβ1-3GalNAc • Saturated Ch hexasaccharide (Ch6) • GlcAβ1-3GalNAcβ1-4GlcAβ1-3GalNAcβ1-4GlcAβ1-3GalNAc • Saturated Ch octasaccharide (Ch8) • GlcAβ1-3GalNAcβ1-4GlcAβ1-3GalNAcβ1-4GlcAβ1-3GalNAcβ1-4GlcAβ1-3GalNAc
The same experiment as Experiment 2 was performed by using these oligosaccharides.

Hsp72 = assay: Expression of Hsp72 in K562 cells given heat shock, Western blotting; type: cell-based, human
Experimental: HA2, ΔHA4, HA6, HA84 and L4L4 were each added to a medium containing the aforementioned cells (37° C.) at a concentration of 1, 10 or 100 ng/mL. Then, the cells were immediately transferred into an environment at 43° C. to be given with heat shock and incubated for 20 minutes. Then, the cells were returned to 37° C., then further incubated for 2 hours and collected by centrifugation, and SDS-PAGE was performed in the same manner as in <1> mentioned above. Thereafter, Western blotting was performed by using anti-Hsp72 monoclonal antibodies (produced by Amersham) as primary antibodies and goat anti-rabbit IgG monoclonal antibodies (produced by Jackson Lab) as secondary antibodies to detect Hsp72. Hsp72 is one of the members of Hsp70 family and is the most typical one, and it is known that its expression is induced and promoted by stress.
The leftmost lane in FIG. 42a indicates the results of the detection of Hsp72 in a similar manner with giving no heat shock (37° C.) and addition of no test substance, and the rightmost lane indicates the results of detection of standard Hsp72 (Hsp72 derived from bacteria, bHsp72) in a similar manner.

Compound | shift of a band of 66 kDa (HSF1 not phosphorylated) to a band of 81 kDa (phosphorylated HSF1) (HSF1) | amount of HSF1 per se (HSF1) | band shift of HSF1 (66 kDa to 81 kDa) (HSF1) | expression of Hsp72 (Hsp72; K562 cells not given heat shock) | expression of Hsp72 (Hsp72; K562 cells, 1, 10 or 100 ng/mL, heat shock 43° C. 20 minutes, then 37° C. 2 hours)
CC(=O)N[C@H]1[C@H](O[C@H]2[C@H](O)[C@@H](O)[C@H](O[C@H]3[C@H](O)[C@@H](CO)O[C@@H](O[C@H]4[C@H](O)[C@@H](O)[C@H](O[C@H]5[C@H](O)[C@@H](CO)OC(O)[C@@H]5NC(C)=O)O[C@@H]4C(=O)O)[C@@H]3NC(C)=O)O[C@@H]2C(=O)O)O[C@H](CO)[C@@H](O)[C@@H]1O[C@@H]1O[C@H](C(=O)O)[C@@H](O)[C@H](O)[C@H]1O.[Na].[Na].[Na] (stereo partly drawn) [HA6, sodium β-D-glucopyranosyluronate-[(1→3)-2-acetamido-2-deoxy-β-D-glucopyranosyl-(1→4)-(sodium β-D-glucopyranosyluronate)]2-(1→3)-2-acetamido-2-deoxy-D-glucopyranose] | shift to the 81 kDa band was observed depending on the amount of the added HA oligosaccharide |  |  |  | 
CC(=O)N[C@H]1[C@H](O[C@H]2[C@H](O)[C@@H](O)[C@H](O[C@H]3[C@H](O)[C@@H](CO)O[C@@H](O[C@H]4[C@H](O)[C@@H](O)[C@H](O[C@H]5[C@H](O)[C@@H](CO)O[C@@H](O[C@H]6[C@H](O)[C@@H](O)[C@H](O[C@H]7[C@H](O)[C@@H](CO)OC(O)[C@@H]7NC(C)=O)O[C@@H]6C(=O)O)[C@@H]5NC(C)=O)O[C@@H]4C(=O)O)[C@@H]3NC(C)=O)O[C@@H]2C(=O)O)O[C@H](CO)[C@@H](O)[C@@H]1O[C@@H]1O[C@H](C(=O)O)[C@@H](O)[C@H](O)[C@H]1O (stereo partly drawn) [HA8, sodium β-D-glucopyranosyluronate-[(1→3)-2-acetamido-2-deoxy-β-D-glucopyranosyl-(1→4)-(sodium β-D-glucopyranosyluronate)]3-(1→3)-2-acetamido-2-deoxy-D-glucopyranose] | inhibition of the band shift was observed | increase of the amount of HSF1 of 66 kDa was observed | band shift to the band of 81 kDa was not observed |  | 
CC(=O)NC1C(O)OC(CO)[C@@H](O)C1O[C@@H]1OC(C(=O)[O-])[C@@H](O[C@@H]2OC(CO)[C@@H](O)C(O[C@@H]3OC(C(=O)[O-])=CC(O)C3O)C2NC(C)=O)C(O)C1O.[Na+].[Na+] (stereo partly drawn) [ΔHA4, ΔGlcAβ1-3GlcNAcβ1-4GlcAβ1-3GlcNAc] | shift to the 81 kDa band was observed depending on the amount of the added HA oligosaccharide | amounts of both HSF1 of 66 kDa and 81 kDa per se were also increased | band shift was observed | enhancement of the expression of Hsp72 by ΔHA4 was not observed | particularly strongly enhanced
